Results: ChEMBL document CHEMBL4118281, “Azoalkyl ether imidazo[2,1-b]benzothiazoles as potentially antimicrobial agents with novel structural skeleton” (2018)
In brackets after ≈: the same amount, converted by molar mass.

Columns and labels:
[1] = tested on: Staphylococcus aureus; experiment: Antibacterial activity against methicillin-resistant Staphylococcus aureus N315 after 24 hrs by micro broth dilution method; format: functional; conditions: N315, 24 h
[2] = tested on: Staphylococcus aureus; experiment: Antibacterial activity against Staphylococcus aureus ATCC 25923 after 24 hrs by micro broth dilution method; format: functional; conditions: ATCC 25923, 24 h
[3] = tested on: Bacillus subtilis; experiment: Antibacterial activity against Bacillus subtilis after 24 hrs by micro broth dilution method; format: functional
[4] = tested on: Micrococcus luteus; experiment: Antibacterial activity against Micrococcus luteus ATCC 4698 after 24 hrs by micro broth dilution method; format: functional; conditions: NCTC 2665, 24 h
[5] = tested on: Escherichia coli; experiment: Antibacterial activity against Escherichia coli DH52 after 24 hrs by micro broth dilution method; format: functional; conditions: DH52, 24 h
[6] = tested on: Escherichia coli; experiment: Antibacterial activity against Escherichia coli JM109 after 24 hrs by micro broth dilution method; format: functional; conditions: JM109, 24 h
[7] = tested on: Shigella dysenteriae; experiment: Antibacterial activity against Shigella dysenteriae after 24 hrs by micro broth dilution method; format: functional
[8] = tested on: Pseudomonas aeruginosa; experiment: Antibacterial activity against Pseudomonas aeruginosa after 24 hrs by micro broth dilution method; format: functional
[9] = tested on: Bacillus; experiment: Antibacterial activity against Bacillus proteus ATCC 13315 after 24 hrs by micro broth dilution method; format: functional; conditions: ATCC 13315, 24 h
[10] = tested on: Salmonella typhi; experiment: Antibacterial activity against Bacillus typhi after 24 hrs by micro broth dilution method; format: functional, Salmonella enterica subsp. enterica serovar Typhi; conditions: Salmonella enterica
[11] = tested on: Candida albicans; experiment: Antifungal activity against Candida albicans after 24 hrs by two fold serial dilution based spectrophotometric analysis; format: functional
[12] = tested on: Pichia norvegensis; experiment: Antifungal activity against Candida mycoderma after 24 hrs by two fold serial dilution based spectrophotometric analysis; format: functional
[13] = tested on: Cyberlindnera jadinii; experiment: Antifungal activity against Candida utilis after 24 hrs by two fold serial dilution based spectrophotometric analysis; format: functional; conditions: Williopsis jadinii
[14] = tested on: Aspergillus flavus; experiment: Antifungal activity against Aspergillus flavus after 24 hrs by two fold serial dilution based spectrophotometric analysis; format: functional
[15] = tested on: Saccharomyces cerevisiae; experiment: Antifungal activity against Beer yeast after 24 hrs by two fold serial dilution based spectrophotometric analysis; format: functional

SMILES	MIC [1] [µg/mL]	MIC [2] [µg/mL]	MIC [3] [µg/mL]	MIC [4] [µg/mL]	MIC [5] [µg/mL]	MIC [6] [µg/mL]	MIC [7] [µg/mL]	MIC [8] [µg/mL]	MIC [9] [µg/mL]	MIC [10] [µg/mL]	MIC [11] [µg/mL]	MIC [12] [µg/mL]	MIC [13] [µg/mL]	MIC [14] [µg/mL]	MIC [15] [µg/mL]
O=[N+]([O-])c1cn(CCCCCOCc2c(-c3ccccc3)nc3sc4ccccc4n23)cn1	8 (≈ 17.3 µM)	32 (≈ 69.3 µM)	128 (≈ 277 µM)	256 (≈ 555 µM)	128 (≈ 277 µM)	128 (≈ 277 µM)	128 (≈ 277 µM)	512 (≈ 1110 µM)	64 (≈ 139 µM)	128 (≈ 277 µM)	16 (≈ 34.7 µM)	16 (≈ 34.7 µM)	> 512	64 (≈ 139 µM)	32 (≈ 69.3 µM)
CCOc1ccc2c(c1)sc1nc(-c3ccccc3)c(COCCCBr)n12	> 512	> 512	> 512	> 512	> 512	> 512	> 512	16 (≈ 35.9 µM)	> 512	8 (≈ 18 µM)	> 512	> 512	> 512	512 (≈ 1150 µM)	> 512
BrCCCCCCCCCCOCc1c(-c2ccccc2)nc2sc3ccccc3n12	64 (≈ 128 µM)	32 (≈ 64.1 µM)	8 (≈ 16 µM)	32 (≈ 64.1 µM)	16 (≈ 32 µM)	128 (≈ 256 µM)	64 (≈ 128 µM)	16 (≈ 32 µM)	16 (≈ 32 µM)	128 (≈ 256 µM)	4 (≈ 8.01 µM)	64 (≈ 128 µM)	64 (≈ 128 µM)	16 (≈ 32 µM)	64 (≈ 128 µM)
Cc1ncc([N+](=O)[O-])n1CCCCCOCc1c(-c2ccccc2)nc2sc3ccccc3n12	8 (≈ 16.8 µM)	4 (≈ 8.41 µM)	16 (≈ 33.6 µM)	64 (≈ 135 µM)	8 (≈ 16.8 µM)	2 (≈ 4.21 µM)	16 (≈ 33.6 µM)	8 (≈ 16.8 µM)	16 (≈ 33.6 µM)	32 (≈ 67.3 µM)	8 (≈ 16.8 µM)	64 (≈ 135 µM)	128 (≈ 269 µM)	16 (≈ 33.6 µM)	> 512
CCn1cc(C(=O)O)c(=O)c2cc(F)c(N3CCNCC3)cc21 [NORFLOXACIN]	8 (≈ 25.1 µM)	2 (≈ 6.26 µM)	4 (≈ 12.5 µM)	2 (≈ 6.26 µM)	1 (≈ 3.13 µM)	1 (≈ 3.13 µM)	16 (≈ 50.1 µM)	16 (≈ 50.1 µM)	8 (≈ 25.1 µM)	4 (≈ 12.5 µM)	–	–	–	–	–
O=[N+]([O-])c1cn(CCCCCCCCCCOCc2c(-c3ccccc3)nc3sc4ccccc4n23)cn1	16 (≈ 30.1 µM)	32 (≈ 60.2 µM)	64 (≈ 120 µM)	128 (≈ 241 µM)	16 (≈ 30.1 µM)	64 (≈ 120 µM)	16 (≈ 30.1 µM)	64 (≈ 120 µM)	32 (≈ 60.2 µM)	64 (≈ 120 µM)	64 (≈ 120 µM)	64 (≈ 120 µM)	256 (≈ 481 µM)	128 (≈ 241 µM)	8 (≈ 15 µM)
CCOc1ccc2c(c1)sc1nc(-c3ccccc3)c(COCCCCCCCCCCn3cncn3)n12	64 (≈ 120 µM)	8 (≈ 15 µM)	32 (≈ 60.2 µM)	64 (≈ 120 µM)	32 (≈ 60.2 µM)	64 (≈ 120 µM)	64 (≈ 120 µM)	8 (≈ 15 µM)	64 (≈ 120 µM)	128 (≈ 241 µM)	> 512	> 512	> 512	> 512	128 (≈ 241 µM)
BrCCCCCOCc1c(-c2ccccc2)nc2sc3ccccc3n12	16 (≈ 37.3 µM)	32 (≈ 74.5 µM)	4 (≈ 9.32 µM)	256 (≈ 596 µM)	16 (≈ 37.3 µM)	16 (≈ 37.3 µM)	16 (≈ 37.3 µM)	16 (≈ 37.3 µM)	16 (≈ 37.3 µM)	128 (≈ 298 µM)	4 (≈ 9.32 µM)	64 (≈ 149 µM)	64 (≈ 149 µM)	16 (≈ 37.3 µM)	16 (≈ 37.3 µM)
CCOc1ccc2c(c1)sc1nc(-c3ccccc3)c(COCCCCCn3cncn3)n12	> 512	> 512	> 512	> 512	> 512	128 (≈ 277 µM)	256 (≈ 555 µM)	> 512	> 512	> 512	> 512	256 (≈ 555 µM)	256 (≈ 555 µM)	> 512	> 512
CCOc1ccc2c(c1)sc1nc(-c3ccccc3)c(COCCCCCBr)n12	> 512	> 512	128 (≈ 270 µM)	> 512	128 (≈ 270 µM)	> 512	128 (≈ 270 µM)	> 512	128 (≈ 270 µM)	> 512	16 (≈ 33.8 µM)	128 (≈ 270 µM)	> 512	64 (≈ 135 µM)	> 512
OC(Cn1cncn1)(Cn1cncn1)c1ccc(F)cc1F [FLUCONAZOLE]	–	–	–	–	–	–	–	–	–	–	1 (≈ 3.27 µM)	4 (≈ 13.1 µM)	8 (≈ 26.1 µM)	256 (≈ 836 µM)	16 (≈ 52.2 µM)
Cc1ncc([N+](=O)[O-])n1CCCCCCCCCCOCc1c(-c2ccccc2)nc2sc3ccccc3n12	16 (≈ 29.3 µM)	16 (≈ 29.3 µM)	16 (≈ 29.3 µM)	256 (≈ 469 µM)	16 (≈ 29.3 µM)	8 (≈ 14.7 µM)	32 (≈ 58.6 µM)	16 (≈ 29.3 µM)	16 (≈ 29.3 µM)	64 (≈ 117 µM)	8 (≈ 14.7 µM)	64 (≈ 117 µM)	128 (≈ 235 µM)	16 (≈ 29.3 µM)	256 (≈ 469 µM)
CCOc1ccc2c(c1)sc1nc(-c3ccccc3)c(COCCCCCn3c([N+](=O)[O-])cnc3C)n12	–	128 (≈ 246 µM)	512 (≈ 985 µM)	256 (≈ 493 µM)	512 (≈ 985 µM)	> 512	–	512 (≈ 985 µM)	> 512	–	32 (≈ 61.6 µM)	128 (≈ 246 µM)	256 (≈ 493 µM)	128 (≈ 246 µM)	128 (≈ 246 µM)
c1ccc(-c2nc3sc4ccccc4n3c2COCCCCCn2cncn2)cc1	16 (≈ 38.3 µM)	16 (≈ 38.3 µM)	32 (≈ 76.6 µM)	256 (≈ 613 µM)	32 (≈ 76.6 µM)	16 (≈ 38.3 µM)	8 (≈ 19.2 µM)	32 (≈ 76.6 µM)	32 (≈ 76.6 µM)	32 (≈ 76.6 µM)	4 (≈ 9.58 µM)	8 (≈ 19.2 µM)	64 (≈ 153 µM)	16 (≈ 38.3 µM)	8 (≈ 19.2 µM)
CCOc1ccc2c(c1)sc1nc(-c3ccccc3)c(COCCCCCCCCCCBr)n12	> 512	> 512	> 512	> 512	> 512	> 512	> 512	16 (≈ 29.4 µM)	> 512	256 (≈ 471 µM)	> 512	> 512	> 512	512 (≈ 942 µM)	> 512
CCOc1ccc2c(c1)sc1nc(-c3ccccc3)c(COCCCCCn3cnc([N+](=O)[O-])c3)n12	> 512	128 (≈ 253 µM)	256 (≈ 506 µM)	512 (≈ 1010 µM)	128 (≈ 253 µM)	> 512	16 (≈ 31.6 µM)	512 (≈ 1010 µM)	512 (≈ 1010 µM)	256 (≈ 506 µM)	128 (≈ 253 µM)	256 (≈ 506 µM)	128 (≈ 253 µM)	256 (≈ 506 µM)	128 (≈ 253 µM)
CCOc1ccc2c(c1)sc1nc(-c3ccccc3)c(COCCCn3c([N+](=O)[O-])cnc3C)n12	16 (≈ 32.5 µM)	32 (≈ 65.1 µM)	16 (≈ 32.5 µM)	128 (≈ 260 µM)	16 (≈ 32.5 µM)	32 (≈ 65.1 µM)	8 (≈ 16.3 µM)	32 (≈ 65.1 µM)	32 (≈ 65.1 µM)	8 (≈ 16.3 µM)	32 (≈ 65.1 µM)	64 (≈ 130 µM)	256 (≈ 521 µM)	64 (≈ 130 µM)	8 (≈ 16.3 µM)
